This is an account of results in patent US20240325544A1, “CATIONIC LIPID FOR COVALENT MODIFICATION OF PEPTIDES” (PharmalN Corporation, priority 2023, published 2024).

Marks after values point to notes of the source that are not given here. Bridge positions count the residues as written; N and C are the ends. Square brackets hold non-standard residues; d marks the D form. Peptide text beside a SMILES is read from it. * marks the point of attachment. C18 diacid = O=C(O)CCCCCCCCCCCCCCCCC(=O)*; Palmitoyl = CCCCCCCCCCCCCCCC(=O)*; Dab = NCC[C@H](N)C(=O)O; Dap = NC[C@H](N)C(=O)O; AEEA = NCCOCCOCC(=O)O A value given as a limit tells only on which side of the number the result lay.

Series [1] can be described thus: Clinically observable adverse effects of cationic alkyl moieties after subcutaneous bolus in rats (Table 1). The class given is in vivo, rat. The following applies: male, Sprague-Dawley, rat, in vivo, sc, tested at 3.0, 5.0 or 10 μmol/kg, lethargy is considered maximum tolerated bolus dose, read-out: Lethargy* in n = 3. How it is done: (§1) Drug administration and observation: Each rat received a subcutaneous injection of a cationic alkyl modifier (SEQ ID NO: 1-22; listed in Table 1 below) in a buffer of sterile water adjusted to a pH between 4.5-5, with an initial bolus dose of 5.0 μmol/kg and an injection volume of 1.0 mL/kg. The bolus dose level was adjusted based on observations, and animals were monitored closely for lethargy, ataxia, swelling, or discoloration during the first 4 hours post-injection and hourly thereafter. As used herein, “ataxia” means a clinical sign observed as poor muscle control that causes clumsy voluntary movements. It may cause difficulty with mobility, coordination, and eye movements. As used herein, “lethargy” means a clinical sign observed as inability or unwillingness to resume normal activity characterized by exploring and alertness. Lethargic rats are easily observed by displaying little to no activity and/or unwillingness to explore around, half closed eyes, and hunched posture. As used herein, “swelling” means a clinical sign observed as the enlargement or engorgement of body parts with blood or fluid and is associated with visible redness (discoloration). If no swelling occurred, dose level was increased to 10 μmol/kg; if swelling was present, bolus dose level was decreased to 3.0 μmol/kg. A wash-out period of 1 week was allowed between bolus doses, and animals were humanely euthanized through CO2 asphyxiation after final observation.

Series [2] has as its system Sprague Dawley rats. The description is as above. The class given is in vivo, rat. The following applies: tested at 3.0, 5.0 or 10 μmol/kg; for Ataxia** in n = 3: ataxia is bolus dose limiting toxicity; for Swelling and/or Discoloration in n = 3: dose at which sign was seen. On the procedure: as §1
Series [3] relates to E0771 breast cancer cells. Briefly: Orthotopic mouse model of breast cancer using E0771 cells (FIG. 6). It counts as in vivo, mice. Particulars: 0.3 mg/kg (0.1 μmol/kg) SC once daily, 5 days on, 2 days off, 3 cycles. On the procedure: Error bars represent standard error of the mean. FIG. 6A) Tumor growth kinetics of 6-week-old female C57BL/6J mice (n=10 per group) that were inoculated with E0771 breast cancer cells (250,000 cells/mouse) in the mammary gland. Starting from Day 4 post-inoculation, cationic alkyl modified CNP derivatives (SEQ ID NO: 29, 30, and 31) were administered subcutaneously at a bolus dose of 0.3 mg/kg (0.1 μmol/kg) once daily for 5 days (5 days on, 2 days off) for 3 cycles; dose days indicated by gridlines. The control group, which received only buffer, was dosed in the same manner to establish the baseline tumor growth kinetics. […] Therefore, it can be concluded that the attachment of CNP is important for the observed anti-tumor activity. Statistical analysis was based on Dunnett's test performed by using GraphPad (n=10, 10, 10, and 10; Control, SEQ ID NO: 29, SEQ ID NO: 30, and SEQ ID NO: 31) **** P<0.0001 vs Control group.
Therefore, it can be concluded that the attachment of CNP is essential for anti-tumor activity. […] Animal care and treatment: Female C57BL/6J mice (6 weeks-old) were purchased from Kyudo (Saga, Japan) and maintained under a 12-hour light/12-hour dark cycle with free access to water and standard mouse diet (MF diet, Oriental Yeast Co., Ltd. Tokyo, Japan or PicoLab Rodent Diet 20, LabDiet Corp., St. Louis, Missouri). Implantation and drug administration: Mice were implanted with E0771 breast cancer cells (250,000 cells/mouse; Cosmo Bio Tokyo, Japan) in their left mammary gland and were randomized into groups of n=10. Starting from Day 4 post-inoculation, cationic alkyl modified CNP derivatives (SEQ ID NOs: 29, 30, and 31) were administered subcutaneously at a bolus dose of 0.3 mg/kg (0.1 μmol/kg; with a dose volume of 10 mL/kg) in sterile water for injection (Otsuka Pharmaceutical, Tokushima, Japan) once daily for 5 days (5 days on, 2 days off) for 3 cycles. The control group, which received only buffer, was dosed in the same manner to establish the baseline tumor growth kinetics. Tumor sizes were measured using calipers. Statistical analysis was based on Dunnett's test performed by using GraphPad (n=10, 10, 10, and 10; Control, SEQ ID NO: 29, SEQ ID NO: 30, and SEQ ID NO: 31) **** P<0.0001 vs Control group.

Another series relates to cGMP. Briefly: Plasma cGMP after SC bolus of natriuretic peptides in CD-1 mice (pharmacodynamics, Table 3). The class given is in vivo. The following applies: SC bolus 1.0 mg/kg (≤0.45 μmol/kg), baseline 10 +/−8 pmol/ml, n = 3-5. The gist of the method:
(§2)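 Peptides given SC in sterile water; retro-orbital blood at 2 and 6 h post-dose (two bleeds per mouse), K2EDTA plasma. Plasma cGMP by commercial immunoassay kit; ANP, BNP or CNP plasma levels by peptide-specific ELISA.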

The nature of series [4]: Plasma concentration of respective natriuretic peptide by ELISA after SC bolus in CD-1 mice (pharmacokinetics, Table 3). The following applies: male, CD-1, mouse, in vivo, sc, 1 mg/kg. A digest of the protocol:
as §2

For series [5], the system named is Sprague Dawley rats. Briefly: Dose-range finding of cationic alkyl modified CNP, subcutaneous bolus in rats (Table 2).
Experimental: Animal care and treatment: Male Sprague Dawley rats aged 8 to 10 weeks (Charles River, Hollister, CA) were housed in groups of two (n=3/group) in disposable polypropylene cages with rodent cob bedding at the PharmaIN animal facility. Animals had ad libitum access to food (LabDiet Pico Rodent #5053; Animal Specialties, Woodburn, OR) and water. Temperature (68-74° F.) and humidity (30-60%) were maintained within a controlled range, and a 12-hour light/dark cycle was used. […] Animals were monitored closely during the first 4 hours following injection, then hourly throughout the rest of the day for any signs of swelling or discoloration (dilatory side effect), lethargy (side effect), ataxia (ataxia is used as a marker of toxicity). Rats were allowed a 1-week wash-out period between bolus doses. Following final observations, animals were humanely euthanized through CO2 asphyxiation.
The test system of series [6] is inflammatory cytokines (MCP1, IL-6, TNFα) in BALF. Briefly: LPS ALI model: inflammatory cytokines in BALF by ELISA (Table 4). It counts as in vivo, mice. Particulars: LPS 0.05 mg/kg IT; SEQ 0.3 mg/kg SC, Sivelestat 150 mg/kg IP; 24 hours. On the procedure:
Animal care and treatment: Male C57BL/6J mice (6 weeks-old) were purchased from Kyudo (Saga, Japan) and maintained under a 12-hour light/12-hour dark cycle with free access to water and standard mouse diet (MF diet, Oriental Yeast Co., Ltd. Tokyo, Japan). Drug administration: Mice were administered LPS (0.05 mg/kg IT; Sigma-Aldrich) followed by treatment with various test articles, including Sivelestat (150 mg/kg; Nipro, Osaka, Japan), an inhibitor of human neutrophil elastase, injected IP as a positive control, and cationic alkyl modified CNPs (SEQ ID NO: 31, 29, and 30; 0.3 mg/kg (0.1 μmol/kg) SC). The test articles were administered immediately after LPS injection. Additionally, a normal control (NC) group without LPS administration and a Control group receiving only LPS without any test article were included. After 24 hours, the mice were euthanized under isoflurane anesthesia and BALF was harvested. Biochemical analysis: ALI and ARDS are often characterized by increased levels of inflammatory cytokines, including Macrophage Chemoattractant Protein-1 (MCP1), Interleukin-6 (IL-6), and […] (TNFα), in BALF. Decreases in their concentration can indicate the resolution of ALI/ARDS. Concentration of each cytokine (MCP1, IL-6, and TNFα) was measured using an ELISA kit (R&D SYSTEMS, Minneapolis M N). […] Statistical analysis was based on Dunnett's test performed by using GraphPad. (n=5, 8, 8, 8, and 8; NC, Control, PC, SEQ ID NO: 31, SEQ ID NO: 29). *** P<0.001, ** P<0.01, * P<0.05 vs each corresponding Control group.

With `CCCCCCCCCCCCCCCC(=O)NCCOCCOCC(=O)NCCOCCOCC(=O)NCCOCCOCC(=O)N[C@@H](CN)C(=O)N[C@@H](CN)C(=O)O` [SEQ ID NO: 14, CH3(CH2)14(C═O)-Aeea-Aeea-Aeea-Dap-Dap] ({Palmitoyl-AEEA-AEEA-AEEA}-[Dap]-[Dap]-OH; C-terminus assumed), the MTD in series [1] is over 10 µmol/kg. In the series with Sprague Dawley rats [2], the “Ataxia** in n = 3” value is over 10 µmol/kg and the “Swelling and/or Discoloration in n = 3” value is over 10 µmol/kg. For the same compound, the “Tumor volume compared to the Control group” value in series [3] is listed as “did not show a significant reduction in tumor volume”.
Turning to `NCC[C@H](NC(=O)[C@H](CCN)NC(=O)COCCOCCNC(=O)COCCOCCNC(=O)COCCOCCNC(=O)CCCCCCCCCCCCCCCCC(=O)O)C(=O)O` [SEQ ID NO: 18, (HOOC)(CH2)16(C═O)-Aeea-Aeea-Aeea-Dab-Dab] ({C18 diacid-AEEA-AEEA-AEEA}-[Dab]-[Dab]-OH; C-terminus assumed), in series [1], the MTD was over 10 µmol/kg. Besides, in the series with Sprague Dawley rats [2], the “Ataxia** in n = 3” value is over 10 µmol/kg and the “Swelling and/or Discoloration in n = 3” value was over 10 µmol/kg.
In the case of `CCCCCCCCCCCCCCCC(=O)NCCOCCOCC(=O)NCCOCCOCC(=O)NCCOCCOCC(=O)N[C@@H](CN)C(=O)N[C@@H](CN)C(=O)N[C@@H](CN)C(=O)O` [SEQ ID NO: 19, CH3(CH2)14(C═O)-Aeea-Aeea-Aeea-Dap-Dap-Dap] ({Palmitoyl-AEEA-AEEA-AEEA}-[Dap]-[Dap]-[Dap]-OH; C-terminus assumed), the MTD in series [1] was over 10 µmol/kg. Besides, in the series on Sprague Dawley rats [2], the “Ataxia** in n = 3” value is over 10 µmol/kg and the “Swelling and/or Discoloration in n = 3” value is over 10 µmol/kg.
For `NC[C@H](NC(=O)[C@H](CN)NC(=O)COCCOCCNC(=O)COCCOCCNC(=O)COCCOCCNC(=O)CCCCCCCCCCCCCCCCC(=O)O)C(=O)O` [SEQ ID NO: 20, (HOOC)(CH2)16(C═O)-Aeea-Aeea-Aeea-Dap-Dap] ({C18 diacid-AEEA-AEEA-AEEA}-[Dap]-[Dap]-OH; C-terminus assumed), the MTD in series [1] was over 10 µmol/kg. In the series on Sprague Dawley rats [2], the “Ataxia** in n = 3” value is over 10 µmol/kg and the “Swelling and/or Discoloration in n = 3” value is over 10 µmol/kg.
`NCC[C@H](NC(=O)[C@H](CCN)NC(=O)COCCOCCNC(=O)COCCOCCNC(=O)CCCCCCCCCCCCCCCCC(=O)O)C(=O)O` [SEQ ID NO: 21, (HOOC)(CH2)16(C═O)-Aeea-Aeea-Dab-Dab] ({C18 diacid-AEEA-AEEA}-[Dab]-[Dab]-OH; C-terminus assumed): the MTD in series [1] was over 10 µmol/kg. Besides, in the series with Sprague Dawley rats [2], the “Ataxia** in n = 3” value is over 10 µmol/kg and the “Swelling and/or Discoloration in n = 3” value is over 10 µmol/kg.
Turning to `CCCCCCCCCCCCCCCC(=O)NCCOCCOCC(=O)NCCOCCOCC(=O)NCCOCCOCC(=O)N[C@@H](CN)C(=O)N[C@@H](CN)C(=O)N[C@@H](CN)C(=O)N[C@@H](CN)C(=O)O` [SEQ ID NO: 22, CH3(CH2)14(C═O)-Aeea-Aeea-Aeea-Dap-Dap-Dap-Dap] ({Palmitoyl-AEEA-AEEA-AEEA}-[Dap][Dap][Dap][Dap]-OH; C-terminus assumed), the MTD in series [1] was over 10 µmol/kg. Besides, in the series on Sprague Dawley rats [2], the “Ataxia** in n = 3” value was over 10 µmol/kg and the “Swelling and/or Discoloration in n = 3” value was over 10 µmol/kg.
Turning to `CCCCCCCCCCCCCCCC(=O)N[C@@H](Cc1ccc(O)cc1)C(=O)N[C@@H](CCC(=O)O)C(=O)NCCOCCOCC(=O)NCCOCCOCC(=O)N[C@@H](CCN)C(=O)N[C@@H](CCN)C(=O)NCC(=O)N[C@@H](CC(C)C)C(=O)N[C@@H](CO)C(=O)N[C@@H](CCCCN)C(=O)NCC(=O)N[C@H]1CSSC[C@@H](C(=O)O)NC(=O)CNC(=O)[C@H](CC(C)C)NC(=O)CNC(=O)[C@H](CO)NC(=O)[C@H](CCC(N)=O)NC(=O)[C@H](CO)NC(=O)CNC(=O)[C@H]([C@@H](C)CC)NC(=O)[C@H](CCCNC(=N)N)NC(=O)[C@H](CC(=O)O)NC(=O)[C@H](CC(C)C)NC(=O)[C@H](CCCCN)NC(=O)[C@H](CC(C)C)NC(=O)CNC(=O)[C@H](Cc2ccccc2)NC1=O` [SEQ ID NO: 30] (Palmitoyl-YE[AEEA][AEEA][Dab][Dab]GLSKGCFGLKLDRIGSQSGLGC-OH; disulfide 12-28; C-terminus assumed), in the series on cGMP (2 hr), the “Plasma concentration of cGMP, 2 hr” value is reported as 217.30** pmol/mL. Also, the “Plasma concentration of cGMP, 6 hr” value in the series on cGMP (6 hr) was 83.85* pmol/mL. In series [4], the level at 2 h turned out to be 12.6 ng/mL and the level at 6 h is 1.9 ng/mL. Moreover, in the series with Sprague Dawley rats [5] (up to 10 mg/kg), the “Ataxia** in n = 3” value is given as over 10 mg/kg, the “Lethargy* in n = 3” value was at least 10 mg/kg and the “Swelling and/or Discoloration in n = 3” value is on record as over 10 mg/kg. In addition, in the series with Sprague Dawley rats [5] (value in parentheses), the “Ataxia** in n = 3” value is recorded as “(3.3) μmol/kg”, the “Lethargy* in n = 3” value is “(3.3) μmol/kg” and the “Swelling and/or Discoloration in n = 3” value is reported as “(3.3) μmol/kg”. In addition, the “Tumor volume compared to the Control group” value in series [3] is given as “significant decrease in tumor volume”.
Regarding `CC(C)(C)C(=O)Oc1ccc(S(=O)(=O)Nc2ccccc2C(=O)NCC(=O)O)cc1` [Sivelestat, reference compound], in series [6], the “IL-6 in BALF” value is recorded as 69 % Of Control, the “MCP1 in BALF” value amounted to 63 % Of Control and the “TNFα in BALF” value turned out to be 63 % Of Control.
